Reference: patent US20240109917A1 (ACTELION PHARMACEUTICALS LTD, priority 2020, published 2024)
Where two headings read alike, the source gives them in different places.

How the values were obtained:
[1] = biological target: Tb-labeled inactive PDGFRβ (Homo sapiens (Human), UniProt P09619); test: PDGFRβ LanthaScreen Assay; type: binding; conditions: read-out: PDGFR Lantha IC50
[2] = biological target: VEGFR2, unphosphorylated (Homo sapiens (Human), UniProt P35968); test: VEGFR ADP GLO Assay; type: biochemical
[3] = biological target: PDGFRβ (Rattus norvegicus (Rat), UniProt Q05030); test: PDGFRβ Cellular Assay (PDGFRb P-Y751 HTRF in A10 cells stimulated with PDGF-BB); type: cell-based
Procedure, shortened: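 Rat A10 cells, plated overnight, were treated with compound for 3 hours, then stimulated with PDGF-BB (working stock 100 ng/mL in 10% FBS medium). After lysis, PDGFRβ P-Y751 was detected by HTRF.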

Tb-labeled inactive PDGFRβ, sequence (P09619 33-1106): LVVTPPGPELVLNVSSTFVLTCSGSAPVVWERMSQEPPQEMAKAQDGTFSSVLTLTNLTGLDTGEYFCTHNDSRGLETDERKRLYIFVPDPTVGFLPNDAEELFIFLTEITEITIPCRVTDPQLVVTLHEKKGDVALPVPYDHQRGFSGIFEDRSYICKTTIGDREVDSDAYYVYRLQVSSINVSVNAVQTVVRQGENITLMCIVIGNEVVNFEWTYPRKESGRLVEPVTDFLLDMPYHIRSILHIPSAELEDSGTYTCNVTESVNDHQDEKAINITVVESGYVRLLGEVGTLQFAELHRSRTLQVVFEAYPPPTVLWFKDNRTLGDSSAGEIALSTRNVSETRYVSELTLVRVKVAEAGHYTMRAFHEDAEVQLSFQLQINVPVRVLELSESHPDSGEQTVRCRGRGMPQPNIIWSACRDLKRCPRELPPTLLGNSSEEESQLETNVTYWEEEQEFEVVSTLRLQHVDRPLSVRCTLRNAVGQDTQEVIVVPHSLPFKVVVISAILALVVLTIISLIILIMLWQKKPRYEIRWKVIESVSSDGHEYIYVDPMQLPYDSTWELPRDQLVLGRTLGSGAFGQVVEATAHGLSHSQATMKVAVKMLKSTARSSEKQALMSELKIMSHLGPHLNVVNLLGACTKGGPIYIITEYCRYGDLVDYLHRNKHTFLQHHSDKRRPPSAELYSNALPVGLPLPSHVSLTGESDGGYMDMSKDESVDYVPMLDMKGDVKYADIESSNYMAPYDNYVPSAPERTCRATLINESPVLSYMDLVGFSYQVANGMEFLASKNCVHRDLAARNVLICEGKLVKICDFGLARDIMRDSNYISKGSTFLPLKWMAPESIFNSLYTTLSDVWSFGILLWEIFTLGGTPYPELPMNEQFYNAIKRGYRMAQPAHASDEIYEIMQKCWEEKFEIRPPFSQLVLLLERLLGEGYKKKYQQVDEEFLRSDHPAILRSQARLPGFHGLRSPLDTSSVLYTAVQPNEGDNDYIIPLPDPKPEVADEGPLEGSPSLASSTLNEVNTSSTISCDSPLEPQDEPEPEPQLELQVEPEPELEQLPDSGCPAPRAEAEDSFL
VEGFR2, unphosphorylated, sequence (P35968 20-1356): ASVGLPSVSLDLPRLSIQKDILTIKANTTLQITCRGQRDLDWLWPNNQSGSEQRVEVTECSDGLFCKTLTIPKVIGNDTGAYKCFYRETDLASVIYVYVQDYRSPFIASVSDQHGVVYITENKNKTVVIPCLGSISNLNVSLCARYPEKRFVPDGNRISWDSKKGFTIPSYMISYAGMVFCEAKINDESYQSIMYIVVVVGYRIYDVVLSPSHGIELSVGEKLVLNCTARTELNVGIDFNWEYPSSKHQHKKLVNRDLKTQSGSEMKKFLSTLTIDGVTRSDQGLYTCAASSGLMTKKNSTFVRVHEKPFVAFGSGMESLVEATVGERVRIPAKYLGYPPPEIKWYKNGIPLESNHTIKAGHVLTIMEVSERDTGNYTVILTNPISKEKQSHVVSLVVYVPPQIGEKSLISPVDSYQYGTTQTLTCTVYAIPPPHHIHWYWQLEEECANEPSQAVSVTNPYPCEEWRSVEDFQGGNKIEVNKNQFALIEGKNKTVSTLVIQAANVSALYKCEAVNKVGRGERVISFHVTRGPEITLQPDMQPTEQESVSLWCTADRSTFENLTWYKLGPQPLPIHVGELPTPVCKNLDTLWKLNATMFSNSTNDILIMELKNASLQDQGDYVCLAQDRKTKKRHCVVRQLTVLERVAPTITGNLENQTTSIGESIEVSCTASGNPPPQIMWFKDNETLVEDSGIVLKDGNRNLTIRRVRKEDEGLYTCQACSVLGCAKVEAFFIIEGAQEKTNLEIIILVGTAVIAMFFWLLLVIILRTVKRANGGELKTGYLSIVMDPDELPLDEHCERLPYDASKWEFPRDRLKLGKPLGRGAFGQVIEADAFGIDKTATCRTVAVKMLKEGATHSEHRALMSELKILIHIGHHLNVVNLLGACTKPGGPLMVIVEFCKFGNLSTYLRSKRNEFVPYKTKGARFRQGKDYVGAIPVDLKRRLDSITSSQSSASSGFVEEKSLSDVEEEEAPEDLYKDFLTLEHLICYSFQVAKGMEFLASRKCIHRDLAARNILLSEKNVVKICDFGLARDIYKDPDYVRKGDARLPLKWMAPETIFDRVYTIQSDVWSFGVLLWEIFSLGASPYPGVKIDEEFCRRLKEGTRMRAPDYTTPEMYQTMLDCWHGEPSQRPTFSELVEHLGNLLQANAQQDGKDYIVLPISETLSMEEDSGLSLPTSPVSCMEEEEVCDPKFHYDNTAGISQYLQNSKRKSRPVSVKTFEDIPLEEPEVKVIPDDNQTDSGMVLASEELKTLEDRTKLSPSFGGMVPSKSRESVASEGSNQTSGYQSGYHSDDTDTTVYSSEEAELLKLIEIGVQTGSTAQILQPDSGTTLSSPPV
PDGFRβ, sequence (Q05030 32-1097): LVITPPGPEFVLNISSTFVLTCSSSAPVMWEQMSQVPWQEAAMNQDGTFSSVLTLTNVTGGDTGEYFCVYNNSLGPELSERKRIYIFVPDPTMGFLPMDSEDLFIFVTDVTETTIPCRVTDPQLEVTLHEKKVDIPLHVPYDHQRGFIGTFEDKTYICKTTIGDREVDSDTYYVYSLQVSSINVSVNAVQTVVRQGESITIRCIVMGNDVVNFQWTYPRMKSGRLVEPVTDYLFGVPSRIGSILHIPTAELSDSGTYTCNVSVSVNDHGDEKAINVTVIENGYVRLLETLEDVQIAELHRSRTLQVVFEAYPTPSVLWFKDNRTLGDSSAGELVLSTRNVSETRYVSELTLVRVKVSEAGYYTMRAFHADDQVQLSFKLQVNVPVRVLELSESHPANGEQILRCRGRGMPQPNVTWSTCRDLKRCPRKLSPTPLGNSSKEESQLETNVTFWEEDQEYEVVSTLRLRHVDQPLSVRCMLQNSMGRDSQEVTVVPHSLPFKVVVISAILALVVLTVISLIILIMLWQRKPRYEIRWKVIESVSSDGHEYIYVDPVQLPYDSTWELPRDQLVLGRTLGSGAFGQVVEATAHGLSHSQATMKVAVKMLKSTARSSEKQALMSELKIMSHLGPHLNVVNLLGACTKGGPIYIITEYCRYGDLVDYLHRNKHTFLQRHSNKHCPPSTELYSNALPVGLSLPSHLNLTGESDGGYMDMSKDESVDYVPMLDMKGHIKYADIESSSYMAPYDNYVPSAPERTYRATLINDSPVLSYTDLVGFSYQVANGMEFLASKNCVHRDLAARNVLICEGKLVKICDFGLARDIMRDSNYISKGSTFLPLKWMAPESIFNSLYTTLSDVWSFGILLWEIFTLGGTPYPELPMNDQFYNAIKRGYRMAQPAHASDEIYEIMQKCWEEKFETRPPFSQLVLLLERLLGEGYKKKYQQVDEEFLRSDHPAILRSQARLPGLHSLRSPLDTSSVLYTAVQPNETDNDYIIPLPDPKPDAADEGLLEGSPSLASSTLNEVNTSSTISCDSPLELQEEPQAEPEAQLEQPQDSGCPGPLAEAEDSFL

SMILES: COc1ncccc1-c1cn2ncc(C(=O)Nc3cc(NC(=O)CN4C[C@@H](CO)OC(C)(C)C4)cnc3C)c2s1 [Example 380, (S)—N-(5-(2-(6-(hydroxymethyl)-2,2-dimethylmorpholino)acetamido)-2-methylpyridin-3-yl)-2-(2-methoxypyridin-3-yl)pyrazolo[5,1-b]thiazole-7-carboxamide]
- IC50 [1]: 3 nM
- IC50 [2]: > 2500 nM
- IC50 ([3]; read-out: PDGFR Cellular IC50): 9.8 nM

SMILES: Cc1ncc(NC(=O)CN2C[C@@H](CO)O[C@@H](C)C2)cc1NC(=O)c1cnn2cc(-c3cnn(C)c3)sc12 (relative stereo) [Example 378, N-(5-(2-(cis-2-(hydroxymethyl)-6-methylmorpholino)acetamido)-2-methylpyridin-3-yl)-2-(1-methyl-1H-pyrazol-4-yl)pyrazolo[5,1-b]thiazole-7-carboxamide]
- IC50 [1]: 10.2 nM
- IC50 [2]: > 2500 nM
- IC50 ([3]; read-out: PDGFR Cellular IC50): 304 nM

SMILES: COCCn1cc(-c2cn3ncc(C(=O)Nc4cc(NC(=O)C5CN(C(C)C)C5)cnc4C)c3s2)cn1 [Example 342, N-(5-(1-isopropylazetidine-3-carboxamido)-2-methylpyridin-3-yl)-2-(1-(2-methoxyethyl)-1H-pyrazol-4-yl)pyrazolo[5,1-b]thiazole-7-carboxamide]
- IC50 [1]: 15.9 nM
- IC50 [2]: > 7500 nM
- IC50 ([3]; read-out: PDGFR Cellular IC50): 339 nM

SMILES: CCc1ncccc1-c1cn2ncc(C(=O)Nc3cc(NC(=O)CN4CC(C)(C)C4)cnc3C)c2s1 [Example 391, N-(5-(2-(3,3-dimethylazetidin-1-yl)acetamido)-2-methylpyridin-3-yl)-2-(2-ethylpyridin-3-yl)pyrazolo[5,1-b]thiazole-7-carboxamide]
- IC50 [1]: 18.4 nM
- IC50 [2]: > 7500 nM
- IC50 ([3]; read-out: PDGFR Cellular IC50): 10.4 nM

SMILES: Cc1ncc(NC(=O)CN2C[C@H](C)O[C@@H](C)C2)cc1NC(=O)c1cnn2cc(-c3cnc(N)c(F)c3)sc12 (relative stereo) [Example 372, 2-(6-amino-5-fluoropyridin-3-yl)-N-(5-(2-(trans-2,6-dimethylmorpholino)acetamido)-2-methylpyridin-3-yl)pyrazolo[5,1-b]thiazole-7-carboxamide]
- IC50 [1]: 7.7 nM
- IC50 [2]: > 2500 nM
- IC50 ([3]; read-out: PDGFR Cellular IC50): 21.2 nM

SMILES: COc1ncccc1-c1cn2ncc(C(=O)Nc3cc(NC(=O)CN4CC(C)(OC)C4)cnc3C)c2s1 [Example 396, N-(5-(2-(3-methoxy-3-methylazetidin-1-yl)acetamido)-2-methylpyridin-3-yl)-2-(2-methoxypyridin-3-yl)pyrazolo[5,1-b]thiazole-7-carboxamide]
- IC50 [1]: 1.8 nM
- IC50 [2]: > 7500 nM
- IC50 ([3]; read-out: PDGFR Cellular IC50): 4.3 nM

SMILES: Cc1ncc(NC(=O)CN2C[C@H](C)O[C@@H](C)C2)cc1NC(=O)c1cnn2cc(-c3cnn(C4CC4)c3)sc12 (relative stereo) [Example 382, 2-(1-cyclopropyl-1H-pyrazol-4-yl)-N-(5-(2-(trans-2,6-dimethylmorpholino)acetamido)-2-methylpyridin-3-yl)pyrazolo[5,1-b]thiazole-7-carboxamide]
- IC50 [1]: 5.3 nM
- IC50 [2]: > 2500 nM
- IC50 ([3]; read-out: PDGFR Cellular IC50): 7.6 nM

SMILES: Cc1ncc(NC(=O)C2CN(C(C)C)C2)cc1NC(=O)c1cnn2cc(-c3cnn(C)c3C)sc12 [Example 357, 2-(1,5-dimethyl-1H-pyrazol-4-yl)-N-(5-(1-isopropylazetidine-3-carboxamido)-2-methylpyridin-3-yl)pyrazolo[5,1-b]thiazole-7-carboxamide]
- IC50 [1]: 4.5 nM
- IC50 [2]: > 7500 nM
- IC50 ([3]; read-out: PDGFR Cellular IC50): 56.9 nM

SMILES: Cc1ncc(NC(=O)CN2C[C@H](C)O[C@@H](C)C2)cc1NC(=O)c1cnn2cc(-c3cnn4c3OCCC4)sc12 (relative stereo) [Example 375, 2-(6,7-dihydro-5H-pyrazolo[5,1-b][1,3]oxazin-3-yl)-N-(5-(2-(trans-2,6-dimethylmorpholino)acetamido)-2-methylpyridin-3-yl)pyrazolo[5,1-b]thiazole-7-carboxamide]
- IC50 [1]: 4.5 nM
- IC50 [2]: > 833 nM
- IC50 ([3]; read-out: PDGFR Cellular IC50): 10.2 nM

SMILES: COCCn1cc(-c2cn3ncc(C(=O)Nc4cc(NC(=O)[C@H]5CCCN5C(C)C)cnc4C)c3s2)cn1 [Example 344, (R)—N-(5-(1-isopropylpyrrolidine-2-carboxamido)-2-methylpyridin-3-yl)-2-(1-(2-methoxyethyl)-1H-pyrazol-4-yl)pyrazolo[5,1-b]thiazole-7-carboxamide]
- IC50 [1]: 67.5 nM
- IC50 [2]: > 7500 nM
- IC50 ([3]; read-out: PDGFR Cellular IC50): 59.2 nM

SMILES: COc1ncccc1-c1cn2ncc(C(=O)Nc3cc(NC(=O)CN4CC(C)C4)cnc3C)c2s1 [Example 405, 2-(2-methoxypyridin-3-yl)-N-(2-methyl-5-(2-(3-methylazetidin-1-yl)acetamido)pyridin-3-yl)pyrazolo[5,1-b]thiazole-7-carboxamide]
- IC50 [1]: 3.9 nM
- IC50 [2]: 6660 nM
- IC50 ([3]; read-out: PDGFR Cellular IC50): 3.8 nM

SMILES: Cc1ncc(NC(=O)CN2CCC3(CC2)CC3)cc1NC(=O)c1cnn2cc(-c3cnn(CCO)c3)sc12 [Example 31, N-(5-(2-(6-azaspiro[2.5]octan-6-yl)acetamido)-2-methylpyridin-3-yl)-2-(1-(2-hydroxyethyl)-1H-pyrazol-4-yl)pyrazolo[5,1-b]thiazole-7-carboxamide]
- IC50 [1]: 5.1 nM
- IC50 [2]: > 7500 nM
- IC50 ([3]; read-out: PDGFR Cellular IC50): 11.1 nM

SMILES: COc1ncccc1-c1cn2ncc(C(=O)Nc3cc(NC(=O)CN4C[C@H](C)O[C@@H](C)C4)cnc3C)c2s1 (relative stereo) [Example 384, N-(5-(2-(trans-2,6-dimethylmorpholino)acetamido)-2-methylpyridin-3-yl)-2-(2-methoxypyridin-3-yl)pyrazolo[5,1-b]thiazole-7-carboxamide]
- IC50 [1]: 2.3 nM
- IC50 [2]: > 833 nM
- IC50 ([3]; read-out: PDGFR Cellular IC50): 4.3 nM

SMILES: COCCn1cc(-c2cn3ncc(C(=O)Nc4cc(NC(=O)CN5CCCC56CCC6)cnc4C)c3s2)cn1 [Example 332, N-(5-(2-(5-azaspiro[3.4]octan-5-yl)acetamido)-2-methylpyridin-3-yl)-2-(1-(2-methoxyethyl)-1H-pyrazol-4-yl)pyrazolo[5,1-b]thiazole-7-carboxamide]
- IC50 [1]: 4.1 nM
- IC50 [2]: > 7500 nM
- IC50 ([3]; read-out: PDGFR Cellular IC50): 4.5 nM

SMILES: Cc1ncc(NC(=O)CN2C[C@H](C)O[C@@H](C)C2)cc1NC(=O)c1cnn2cc(-c3cc[nH]n3)sc12 (relative stereo) [Example 374, N-(5-(2-(trans-2,6-dimethylmorpholino)acetamido)-2-methylpyridin-3-yl)-2-(1H-pyrazol-3-yl)pyrazolo[5,1-b]thiazole-7-carboxamide]
- IC50 [1]: 4 nM
- IC50 [2]: > 7500 nM
- IC50 ([3]; read-out: PDGFR Cellular IC50): 41.3 nM

SMILES: Cc1ncc(NC(=O)C2CN(C(C)C)C2)cc1NC(=O)c1cnn2cc(-c3cnn4c3OCCC4)sc12 [Example 348, 2-(6,7-dihydro-5H-pyrazolo[5,1-b][1,3]oxazin-3-yl)-N-(5-(1-isopropylazetidine-3-carboxamido)-2-methylpyridin-3-yl)pyrazolo[5,1-b]thiazole-7-carboxamide]
- IC50 [1]: 4 nM
- IC50 [2]: > 7500 nM
- IC50 ([3]; read-out: PDGFR Cellular IC50): 195 nM

SMILES: COc1cc(-c2cn3ncc(C(=O)Nc4cc(NC(=O)CN5CC(C)(C)C5)cnc4C)c3s2)c(OC)nn1 [Example 393, 2-(3,6-dimethoxypyridazin-4-yl)-N-(5-(2-(3,3-dimethylazetidin-1-1)acetamido)-2-methylpyridin-3-yl)pyrazolo[5,1-b]thiazole-7-carboxamide]
- IC50 [1]: 5.1 nM
- IC50 [2]: > 7500 nM
- IC50 ([3]; read-out: PDGFR Cellular IC50): 3.5 nM

SMILES: Cc1ncc(NC(=O)CN2C[C@H](CO)OC(C)(C)C2)cc1NC(=O)c1cnn2cc(-c3cnn(C)c3)sc12 [Example 376, (R)—N-(5-(2-(6-(hydroxymethyl)-2,2-dimethylmorpholino)acetamido)-2-methylpyridin-3-yl)-2-(1-methyl-1H-pyrazol-4-yl)pyrazolo[5,1-b]thiazole-7-carboxamide]
- IC50 [1]: 5.6 nM
- IC50 [2]: > 7500 nM
- IC50 ([3]; read-out: PDGFR Cellular IC50): 154 nM

SMILES: Cc1ncc(NC(=O)CN2C[C@H](C)O[C@@H](C)C2)cc1NC(=O)c1cnn2cc(-c3c(C)n[nH]c3C)sc12 (relative stereo) [Example 373, 2-(3,5-dimethyl-1H-pyrazol-4-yl)-N-(5-(2-(trans-2,6-dimethylmorpholino)acetamido)-2-methylpyridin-3-yl)pyrazolo[5,1-b]thiazole-7-carboxamide]
- IC50 [1]: 7 nM
- IC50 [2]: > 7500 nM
- IC50 ([3]; read-out: PDGFR Cellular IC50): 56.7 nM

SMILES: COC/C=C/c1cn2ncc(C(=O)Nc3cc(C(=O)NCCN4CCCC4(C)C)cnc3C)c2s1 [Example 361, (E)-N-(5-((2-(2,2-dimethylpyrrolidin-1-yl)ethyl)carbamoyl)-2-methylpyridin-3-yl)-2-(3-methoxyprop-1-en-1-yl)pyrazolo[5,1-b]thiazole-7-carboxamide]
- IC50 [1]: 19 nM
- IC50 [2]: > 7500 nM
- IC50 ([3]; PDGFR Cellular IC50): 14.9 nM

SMILES: COCCCc1cn2ncc(C(=O)Nc3cc(C(=O)NCCN4CCCC4(C)C)cnc3C)c2s1 [Example 360, N-(5-((2-(2,2-dimethylpyrrolidin-1-yl)ethyl)carbamoyl)-2-methylpyridin-3-yl)-2-(3-methoxypropyl)pyrazolo[5,1-b]thiazole-7-carboxamide]
- IC50 [1]: 100 nM
- IC50 [2]: > 7500 nM
- IC50 ([3]; PDGFR Cellular IC50): 59.2 nM

SMILES: Cc1ncc(C(=O)NCCN2CCCC2(C)C)cc1NC(=O)c1cnn2cc(-c3cnn(Cc4cc(OCc5ccccc5)no4)c3)sc12 [Example 362, 2-(1-((3-(benzyloxy)isoxazol-5-yl)methyl)-1H-pyrazol-4-yl)-N-(5-((2-(2,2-dimethylpyrrolidin-1-yl)ethyl)carbamoyl)-2-methylpyridin-3-yl)pyrazolo[5,1-b]thiazole-7-carboxamide]
- IC50 [1]: 4.5 nM
- IC50 [2]: > 2500 nM
- IC50 ([3]; read-out: PDGFR Cellular IC50): 62.3 nM

SMILES: Cc1ncc(NC(=O)CN2CC3CCC(C2)O3)cc1NC(=O)c1cnn2cc(-c3cc[nH]c3)sc12 [Example 366, N-(5-(2-(8-oxa-3-azabicyclo[3.2.1]octan-3-yl)acetamido)-2-methylpyridin-3-yl)-2-(1H-pyrrol-3-yl)pyrazolo[5,1-b]thiazole-7-carboxamide]
- IC50 [1]: 2.5 nM
- IC50 [2]: 571 nM
- IC50 ([3]; read-out: PDGFR Cellular IC50): 7.7 nM
